These results are taken from PubChem BioAssay (NCI).

Test systems include NCI-H23 lung; DMS 114 small cell lung; HOP-18 NSCLC; SR leukemia; LXFL 529 NSCLC; UACC-257 melanoma; CAKI-1 renal; SK-OV-3 ovarian; SF-539 CNS; DLD-1 colon; SN12C renal; DU-145 prostate.
Test in all cases: inhibition of tumour cell growth, NCI panel, 48 h

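Briefly, cells in 96-well plates were exposed to five compound concentrations for 48 h, and endpoints were estimated by linear interpolation. Here, GI50 denotes the concentration required for 50% inhibition of growth. TGI marks complete inhibition of growth.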

As for `CCC(=O)O[C@@H]1C2C(OC(C)=O)C34COC(C)([C@@H]3C3C(C[C@]3(C)OC(C)=O)[C@@H](OC(=O)c3ccccc3)C4=O)[C@H](OC(C)=O)[C@@]2(OC(C)=O)C[C@@H]1C` (stereo partly specified), the TGI with NCI-H23 lung was 45 µM; in the test with DMS 114 small cell lung, 51.3 µM; in the test with HOP-18 NSCLC it was > 100 µM; in the test on SR leukemia, > 100 µM; in the test with LXFL 529 NSCLC, > 100 µM; in the test on UACC-257 melanoma, > 100 µM. The TGI was > 100 µM in the test with CAKI-1 renal; 83.1 µM with SK-OV-3 ovarian; 47.5 µM in the test with SF-539 CNS; > 100 µM in the test with DLD-1 colon; > 100 µM in the test with SN12C renal.

For the compound `Cc1ccccc1NC(=O)c1[nH]c(=S)nc(N)c1-c1ccccc1C`, the TGI in the test on NCI-H23 lung, with DMS 114 small cell lung, in the test on HOP-18 NSCLC, with SR leukemia, with LXFL 529 NSCLC and in the test with UACC-257 melanoma was > 100 µM in each case. The TGI in the test on CAKI-1 renal, with SK-OV-3 ovarian, in the test with SF-539 CNS, with DLD-1 colon and in the test on SN12C renal was > 100 µM in each case.

On to `COC(=O)/C(C#N)=C1\N=NNN1CCCc1ccccc1`, for which the TGI in the test on NCI-H23 lung, in the test with DMS 114 small cell lung, in the test with HOP-18 NSCLC, with LXFL 529 NSCLC, in the test on UACC-257 melanoma and in the test with CAKI-1 renal was > 100 µM each time. In addition, the TGI with SK-OV-3 ovarian, in the test on SF-539 CNS, with DLD-1 colon and in the test on SN12C renal was > 100 µM throughout.

For `Cc1cc2c(=O)cc(-c3ccc(Cl)cc3)oc2c(C(=O)O)c1C`, the TGI in the test on NCI-H23 lung, with DMS 114 small cell lung, with HOP-18 NSCLC, with LXFL 529 NSCLC, in the test on UACC-257 melanoma and with CAKI-1 renal was > 100 µM each time. Also, the TGI in the test on SK-OV-3 ovarian, with SF-539 CNS, in the test on DLD-1 colon and with SN12C renal was > 100 µM in each case.

On to `COc1ccccc1NC(=O)C1=C(C)NC(C)=C(C(=O)Nc2ccccc2OC)C1c1ccc(C(C)C)cc1`, for which the TGI in the test with NCI-H23 lung, in the test on HOP-18 NSCLC, with SR leukemia, in the test with LXFL 529 NSCLC, with UACC-257 melanoma and with CAKI-1 renal was > 100 µM in each case. The TGI with SK-OV-3 ovarian, in the test on SF-539 CNS, in the test with DLD-1 colon and in the test on SN12C renal was > 100 µM in each case.

For `O=C1NC(=NCCc2ccccc2Cl)S/C1=C\c1ccc2ncccc2c1`, the GI50 in the test on NCI-H23 lung was 6.06 µM; in the test on SR leukemia, 0.622 µM; in the test with UACC-257 melanoma, 11.2 µM; in the test with CAKI-1 renal, 3.3 µM; in the test on SK-OV-3 ovarian, 5.94 µM; with DU-145 prostate, 6.9 µM. The figures for the GI50 in the test on SF-539 CNS and in the test with SN12C renal were 3.13 µM and 7.72 µM, respectively. Besides, the TGI with NCI-H23 lung is > 25 µM; with SR leukemia, 2.25 µM; in the test on UACC-257 melanoma, > 25 µM; in the test with CAKI-1 renal it was > 14.8 µM; in the test on SK-OV-3 ovarian it was > 20.4 µM; with DU-145 prostate it was > 25 µM. Besides, the results for the TGI in the test on SF-539 CNS and with SN12C renal were 13.2 µM and > 25 µM, respectively.

In the case of `O=C(/C=C/c1ccccc1F)C(c1ccccc1)c1ccccc1`, the TGI in the test on SR leukemia was found to be 41.9 µM; in the test on LXFL 529 NSCLC, 12 µM; in the test on UACC-257 melanoma, 17.7 µM; in the test with CAKI-1 renal, 17.8 µM; in the test on SK-OV-3 ovarian, 8.47 µM; with SF-539 CNS it was 5.48 µM. Moreover, the TGI in the test with DLD-1 colon stood at 12.7 µM; in the test on SN12C renal, 15.2 µM.

On to `C[Si](C)(C)/C(Br)=C\CCN1C(=O)CCC1O` (stereo unspecified), for which the TGI in the test on NCI-H23 lung, with DMS 114 small cell lung, with HOP-18 NSCLC, with LXFL 529 NSCLC, with UACC-257 melanoma and in the test on SK-OV-3 ovarian was > 100 µM in each case. Moreover, the TGI in the test on SF-539 CNS and in the test on SN12C renal was > 100 µM throughout.

For `NC(=O)NC(=O)CI`, the GI50 in the test on NCI-H23 lung was 5.75 µM; in the test on SR leukemia, 2.52 µM; in the test with UACC-257 melanoma, 3.96 µM; in the test with CAKI-1 renal, 2.32 µM; in the test on SK-OV-3 ovarian it was 27.4 µM; in the test on DU-145 prostate, 17.7 µM. Further, the GI50 is 9.5 µM in the test with SF-539 CNS and 6.63 µM in the test on SN12C renal. Moreover, the TGI in the test with NCI-H23 lung is 21 µM; in the test with SR leukemia it was 7.69 µM; in the test with UACC-257 melanoma, 13.4 µM; with CAKI-1 renal, 5.51 µM; in the test with SK-OV-3 ovarian it was > 56.2 µM; in the test with DU-145 prostate, 32.3 µM. The values for the TGI in the test on SF-539 CNS and with SN12C renal were 23 µM and 19.2 µM, respectively.

Take `O=Cc1ccc(C(F)(F)F)cc1.[C-]#[O+].[C-]#[O+].[C-]#[O+].[Cr]`: the GI50 with NCI-H23 lung is 37.1 µM; with SR leukemia, 15.1 µM; in the test on UACC-257 melanoma, 58.2 µM; in the test on CAKI-1 renal, 24.6 µM; in the test on SK-OV-3 ovarian, 31.3 µM; with DU-145 prostate, 20.9 µM. Further, the GI50 in the test with SF-539 CNS is 18.5 µM; with SN12C renal it was 22.6 µM. Further, the TGI in the test on NCI-H23 lung was > 100 µM; in the test with SR leukemia, 46.6 µM; with UACC-257 melanoma, > 100 µM; in the test with CAKI-1 renal, > 100 µM; with SK-OV-3 ovarian, > 100 µM; in the test with DU-145 prostate it was 94.9 µM. The results for the TGI in the test with SF-539 CNS and with SN12C renal were 54.3 µM and 82.1 µM, respectively.

With `CCOc1ccc(NC(=O)C2=C(C)NC(C)=C(C(=O)Nc3ccc(OCC)cc3)C2c2ccc([N+](=O)[O-])cc2)cc1`, the TGI with NCI-H23 lung, in the test on DMS 114 small cell lung, in the test on LXFL 529 NSCLC, in the test with UACC-257 melanoma, in the test with CAKI-1 renal and in the test on SK-OV-3 ovarian was > 100 µM in each case. Further, the TGI in the test on SF-539 CNS, with DLD-1 colon and in the test with SN12C renal was > 100 µM throughout.

For `CSC(=S)N/N=C(\C)c1ccccn1`, the GI50 is 0.119 µM in the test on NCI-H23 lung; < 0.033 µM in the test with SR leukemia; 0.159 µM in the test on UACC-257 melanoma; 0.267 µM with CAKI-1 renal; 0.589 µM in the test on SK-OV-3 ovarian; 0.465 µM in the test with DU-145 prostate. The values for the GI50 in the test on SF-539 CNS and in the test on SN12C renal were 0.366 µM and 0.454 µM, respectively. Further, the TGI with NCI-H23 lung was determined as 26.5 µM; in the test on SR leukemia it was 6.46 µM; with UACC-257 melanoma it was 1.55 µM; in the test with CAKI-1 renal it was 7.25 µM; in the test on SK-OV-3 ovarian, 15.2 µM; in the test with DU-145 prostate, 12.2 µM. Besides, the TGI in the test on SF-539 CNS came out at 3.54 µM; in the test on SN12C renal, 37.5 µM.
